This assay has as its target T1, SjGRM7 (Schistosoma japonicum, UniProt A0A4Z2D6G5).
T1 construct: gene EWB00_004136; S. mansoni homologue is Smp_128940
T1 sequence (A0A4Z2D6G5 24-1036): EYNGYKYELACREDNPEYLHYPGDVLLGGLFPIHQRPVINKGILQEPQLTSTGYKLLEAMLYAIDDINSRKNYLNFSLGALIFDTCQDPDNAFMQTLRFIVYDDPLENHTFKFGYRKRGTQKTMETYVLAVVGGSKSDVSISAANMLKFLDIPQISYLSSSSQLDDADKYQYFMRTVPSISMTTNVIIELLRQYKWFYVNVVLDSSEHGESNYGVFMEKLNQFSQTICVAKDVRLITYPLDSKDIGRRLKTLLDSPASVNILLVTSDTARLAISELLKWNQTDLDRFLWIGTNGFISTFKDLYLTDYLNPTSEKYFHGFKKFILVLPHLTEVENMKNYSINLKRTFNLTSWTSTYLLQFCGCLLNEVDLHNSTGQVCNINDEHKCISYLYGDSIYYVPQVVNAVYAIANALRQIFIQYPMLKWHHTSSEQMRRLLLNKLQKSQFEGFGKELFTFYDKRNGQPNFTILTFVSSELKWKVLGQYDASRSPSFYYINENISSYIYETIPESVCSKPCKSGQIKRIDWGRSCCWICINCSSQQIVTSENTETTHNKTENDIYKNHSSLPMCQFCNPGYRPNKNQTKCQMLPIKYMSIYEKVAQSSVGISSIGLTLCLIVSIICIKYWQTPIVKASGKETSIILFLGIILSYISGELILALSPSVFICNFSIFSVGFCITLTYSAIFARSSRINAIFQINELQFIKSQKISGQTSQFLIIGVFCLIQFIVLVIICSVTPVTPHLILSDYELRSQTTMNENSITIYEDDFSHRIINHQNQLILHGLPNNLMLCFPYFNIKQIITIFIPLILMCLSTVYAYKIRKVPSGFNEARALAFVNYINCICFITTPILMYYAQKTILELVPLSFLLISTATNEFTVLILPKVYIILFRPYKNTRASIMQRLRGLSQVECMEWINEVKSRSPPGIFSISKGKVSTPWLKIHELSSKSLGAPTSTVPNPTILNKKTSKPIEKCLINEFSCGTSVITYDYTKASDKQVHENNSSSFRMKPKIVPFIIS
The experiment in a line: Fluo-4 calcium mobilization in transfected HEK293T cells. The assay is classed as cell-based. The conditions noted are these: agonist; co-expressed G-alpha16; dose series.

`N[C@@H](CCC(=O)O)C(=O)O` [L-glutamate]: the “Fluo-4 calcium mobilization in transfected HEK293T cells” value is “SjGRM and SjGRM7 responded only to L-glutamate”.

The values are drawn from publication PMC9750798, “A metabotropic glutamate receptor affects the growth and development of Schistosoma japonicum” (Frontiers in Microbiology, 2022).
